Key:
DNA-PK pathway [1] = test: Pharmacodynamic study, HCT116 xenograft tumors, Western blots (FIG. 3); format: in vivo; settings: nu/nu mice, IV bolus 20 or 40 mg/kg, 1-24 hours post dose
Procedure: Nu/nu mice (ca. 25 grams) were injected with HCT116 cells (which were obtained from the ATCC) in the hind flank at 5 million cells with 50% matrigel (Becton-Dickinson). Tumors were allowed to grow to 400 mm^3. Xenograft bearing animals were then given either an IV bolus injection of SNS-595 (20 or 40 mg/kg) in the tail vein or a saline vehicle. At prescribed time points (1, 2, 4, 8, 16, and 24 hours post dose), animals were anesthetized with CO2, blood was taken via terminal cardiac puncture, and animals were sacrificed. Tumors were excised, pulverized using liquid nitrogen-cooled mortar and pestle, and flash-frozen in liquid nitrogen. Tumor lysates were made from pulverized samples by addition of lysis buffer. The protein concentrations of the DNA-PK pathway members were determined by Western blots. Approximately 25 micrograms of protein was loaded per lane on an SDS-PAGE gel. Proteins were separated by gel electrophoresis, blotted onto nitrocellulose membranes, and detected using the following antibodies: H2AX, phosphorylated at S139 (Cell Signaling, catalog no. 2577L); p53, phosphorylated at S15 (Cell Signaling, catalog no. 9284S); p53, phosphorylated at S37 (Cell Signaling, catalog no. 9289S); p21 (Cell Signaling, catalog no. 2946); cdc2, phosphorylated at Y15 (Calbiochem, catalog no. 219437); cyclin B (Santa Cruz, catalog no.sc-594 (H-20)); p73, phosphorylated at […] […]

[2] = Pharmacokinetics of SNS-595 in cancer patients; format: in vivo, human
Procedure: SNS-595 was administered to enrolled patients for up to six cycles. A cycle is defined as a three-week period, with SNS-595 administered on the first day of each cycle (day 0), followed by at least 21 days of observation. SNS-595 was administered to cohorts of at least 3 patients and dose escalation occurred by sequential cohort.

[3] = test system: stable variant of HCT-116 cells; test: Sensitivity of SNS-595-resistant HCT-116 variant; format: cell-based; settings: cells with induced resistance
Text: Consistent with this mechanism, cells with induced resistance to SNS-595 also have alterations in the DNA-PK pathway. […] Conversely, decreased levels of DNA-PK or its activity (e.g. in the presence of an inhibitor) is associated with an increased sensitivity to SNS-595.

DNA-PK pathway [4] = test: Dose-dependent responses of DNA-PK pathway members in HCT 116 cells (FIG. 2); format: cell-based; settings: H2AX, c-Abl, p53, p73, p21, caspase-9, caspase-3
Text: (§1) This damage impedes the ability of the cell to synthesize DNA and lengthens the time the cell spends in the S phase. […] When the DNA damage is sufficiently severe such that the double-strand breaks cannot be repaired through non-homologous end joining (NHEJ), the cell rapidly enters apoptosis. Some cells are able to reach the G2 phase but are subsequently arrested (mediated by cdc2/cyclin B) because the cells are too damaged to enter into the M phase and also eventually becomes apoptotic.

various cells = test: Cytotoxicity of SNS-595 in various cells; format: cell-based
Text: SNS-595 is a cell cycle inhibitor and arrests cells at the G2 interface. Initially, the activity of SNS-595 was believed due to topoisomerase II inhibition.
As shown by FIG. 1, ATM, ATR, and DNA-PK are three central DNA sensors/effectors that depending on the level of DNA damage that is detected within an individual cell, direct the cell into one of several outcomes including DNA repair, G2 arrest or apoptosis.

non-proliferating cells = test: Cytotoxicity to non-proliferating cells; format: cell-based; settings: doses cytotoxic to proliferating cells
Text: as §1, with “Treatment with SNS-595 results in an increase in the number of double-strand DNA breaks that form during the S phase. This” for “This”

- relation of dose with AUC∞ ([2]; dose escalation by cohort): linear
- MRT inf ([2]; human, intravenous, plasma, dose 3 mg/m2, mean, read-out: MRTINF_obs): 22 h
- MRTINF_obs ([2]; plasma, dose 6 mg/m2, mean): 29.05 h
- C0 ([2]; plasma, dose 12 mg/m2, mean): 2888.66 ng/mL
- MRTINF_obs ([2]; plasma, dose 12 mg/m2, mean): 23.67 h
Structure (SMILES): CN[C@H]1CN(c2ccc3c(=O)c(C(=O)O)cn(-c4nccs4)c3n2)C[C@@H]1OC [SNS-595, (+)-1,4-dihydro-7-[(3S,4S)-3-methoxy-4-(methylamino)-1-pyrrolidinyl]-4-oxo-1-(2-thiazoyl)-1,8-naphthyridine-3-carboxylic acid]
- levels of DNA-PK pathway members in tumors (DNA-PK pathway [1]): activated
- sensitivity to SNS-595 relative to HCT-116 cells [3]: approximately ten fold less sensitive
- activation of DNA-PK mediated repair and apoptotic machinery (DNA-PK pathway [4]): activates, in a dose dependent manner
- EC50 (various cells): 200 to 300 nM
- difference in potency, cell EC50 versus biochemical inhibition of topoisomerase II (various cells): at least a ten-fold difference
- EC50 in caffeine treated cells (G2 arrest abrogated) versus untreated cells (various cells; caffeine inhibits ATM and ATR): essentially no difference in EC50 values
- activity in 2-deoxyglucose treated cells versus untreated cells (various cells; topoisomerase II levels modulated with 2-deoxyglucose): essentially no difference in activity
- lethality to non-proliferating cells (non-proliferating cells): non-lethal

From US7968565B2, “Therapeutic combinations comprising (+)-1,4-dihydro-7-[(3S,4S)-3-methoxy-4-(methylamino)-1-pyrrolidinyl]-4-oxo-1-(2-thiazolyl)-1,8-naphthyridine-3-carboxylic acid” (Sunesis Pharmaceuticals, Inc., priority 2004, dated 2011)
